From ChEMBL document CHEMBL1201862, “PubChem BioAssay data set” (2004)
Activity calls are given as the source filed them.

Experiments:
Cytochrome P450 2D6 = Cytochrome P450 2D6 (Homo sapiens, UniProt P10635);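 also: CYP2D6 member of a cytochrome P450 panel assay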
Cytochrome P450 3A4 = Cytochrome P450 3A4 (Homo sapiens, UniProt P08684);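 also: CYP3A4 tested as one member of a cytochrome P450 panel screen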
Cytochrome P450 2C19 = Cytochrome P450 2C19 (Homo sapiens, UniProt P33261); test: Cytochrome panel assay with activity outcomes. Panel member name: p450-cyp2c19 Compounds with AC50 equal or less than 10 uM are considered active; assay type: functional; settings: read-out: AC50
Chain of Cytochrome P450 2C19 (P33261 whole entry): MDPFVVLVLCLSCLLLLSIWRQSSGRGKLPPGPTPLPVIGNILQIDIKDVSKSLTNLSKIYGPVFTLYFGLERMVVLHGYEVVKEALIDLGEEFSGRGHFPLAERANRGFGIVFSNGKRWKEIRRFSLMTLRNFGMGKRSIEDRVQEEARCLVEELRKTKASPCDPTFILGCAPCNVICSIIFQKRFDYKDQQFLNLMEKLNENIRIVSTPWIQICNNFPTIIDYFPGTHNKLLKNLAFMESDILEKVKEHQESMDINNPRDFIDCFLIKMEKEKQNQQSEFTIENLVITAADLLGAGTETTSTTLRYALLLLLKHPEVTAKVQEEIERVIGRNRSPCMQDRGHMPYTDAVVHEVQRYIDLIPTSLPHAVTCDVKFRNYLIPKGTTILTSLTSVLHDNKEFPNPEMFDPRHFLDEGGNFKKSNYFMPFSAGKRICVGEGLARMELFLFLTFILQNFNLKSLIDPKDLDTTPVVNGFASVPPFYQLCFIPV

Cytochrome P450 2C9 = Cytochrome P450 2C9 (Homo sapiens, UniProt P11712)
Chain of Cytochrome P450 2C9 (P11712 whole entry): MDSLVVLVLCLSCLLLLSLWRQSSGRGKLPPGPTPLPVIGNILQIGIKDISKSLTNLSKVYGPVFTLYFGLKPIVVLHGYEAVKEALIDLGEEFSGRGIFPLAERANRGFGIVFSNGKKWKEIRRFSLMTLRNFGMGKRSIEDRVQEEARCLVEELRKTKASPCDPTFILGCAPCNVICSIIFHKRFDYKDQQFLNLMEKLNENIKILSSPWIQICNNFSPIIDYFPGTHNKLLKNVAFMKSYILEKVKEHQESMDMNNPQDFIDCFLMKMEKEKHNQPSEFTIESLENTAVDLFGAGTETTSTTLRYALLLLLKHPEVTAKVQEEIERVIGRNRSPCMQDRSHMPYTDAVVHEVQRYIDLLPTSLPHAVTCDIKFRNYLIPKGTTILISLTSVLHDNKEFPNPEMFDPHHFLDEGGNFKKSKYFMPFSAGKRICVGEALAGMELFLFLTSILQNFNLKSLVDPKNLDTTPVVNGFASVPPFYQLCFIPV

[1] = target: T1, Corticotropin-releasing factor receptor 2/Corticotropin-releasing factor-binding protein (Homo sapiens, UniProt P24387+Q13324); test: Dose Response confirmation of uHTS hits for small molecule antagonists of the CRF-binding protein and CRF-R2 receptor complex.; assay type: functional; settings: read-out: IC50_Mean
T1 sequence (Q13324 whole entry): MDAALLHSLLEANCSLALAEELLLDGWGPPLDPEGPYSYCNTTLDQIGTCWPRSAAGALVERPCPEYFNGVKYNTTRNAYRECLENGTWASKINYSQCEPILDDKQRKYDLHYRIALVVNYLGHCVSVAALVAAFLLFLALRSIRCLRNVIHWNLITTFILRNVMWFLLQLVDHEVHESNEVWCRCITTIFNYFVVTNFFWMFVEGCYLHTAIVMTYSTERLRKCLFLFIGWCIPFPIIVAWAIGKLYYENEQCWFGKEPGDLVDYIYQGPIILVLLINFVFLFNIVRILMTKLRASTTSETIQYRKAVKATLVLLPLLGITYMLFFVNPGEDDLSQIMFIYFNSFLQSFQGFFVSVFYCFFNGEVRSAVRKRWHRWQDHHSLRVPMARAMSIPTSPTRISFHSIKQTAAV
T1 sequence (P24387 whole entry): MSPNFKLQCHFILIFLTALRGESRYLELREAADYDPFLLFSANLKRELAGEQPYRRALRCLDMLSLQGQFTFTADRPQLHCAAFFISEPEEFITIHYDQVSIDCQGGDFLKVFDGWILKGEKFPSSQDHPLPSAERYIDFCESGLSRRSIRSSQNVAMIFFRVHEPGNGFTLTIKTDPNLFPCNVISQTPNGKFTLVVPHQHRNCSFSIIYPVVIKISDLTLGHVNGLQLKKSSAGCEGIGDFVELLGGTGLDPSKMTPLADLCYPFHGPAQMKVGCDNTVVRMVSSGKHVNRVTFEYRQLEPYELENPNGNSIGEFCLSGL

[2] = target: T1, Corticotropin-releasing factor receptor 2/Corticotropin-releasing factor-binding protein; test: activators of CRF receptor 2 with binding protein – uHTS hits, confirmation (AID 602473); assay type: functional; settings: read-out: EC50_Mean
[3] = system: Streptococcus sp. 'group A'; test: Streptococcus pyogenes SK(-)GAS viability under kanamycin – luminescence, BacTiterGlo, confirmation, counter-screen for streptokinase expression inhibitor project, dose response (AID 1900); assay type: functional, organism-based
Streptokinase A = target: T2, Streptokinase A (Streptococcus pyogenes serotype M1, UniProt P10520); test: viability-normalized secreted streptokinase activity reduction – plasminogen activation absorbance, OD405, dose response (AID 1914); assay type: functional, Streptococcus pyogenes M1 GAS;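 also: secreted streptokinase activity via plasminogen activation per viability signal from cell pellet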
T2 sequence (P10520 whole entry): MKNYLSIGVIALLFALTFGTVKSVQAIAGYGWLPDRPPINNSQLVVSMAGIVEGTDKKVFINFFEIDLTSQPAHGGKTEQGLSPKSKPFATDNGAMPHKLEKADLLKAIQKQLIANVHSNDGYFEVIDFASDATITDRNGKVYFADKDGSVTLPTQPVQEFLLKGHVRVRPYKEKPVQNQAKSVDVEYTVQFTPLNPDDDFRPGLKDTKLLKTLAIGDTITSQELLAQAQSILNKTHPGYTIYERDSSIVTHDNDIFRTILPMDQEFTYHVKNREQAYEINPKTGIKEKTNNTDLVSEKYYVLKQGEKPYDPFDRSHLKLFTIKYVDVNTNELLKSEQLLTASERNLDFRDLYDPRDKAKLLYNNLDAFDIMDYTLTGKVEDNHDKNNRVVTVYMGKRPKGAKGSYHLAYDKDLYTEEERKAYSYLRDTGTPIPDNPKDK

Streptococcus = test: GAS UMAA2166 growth inhibition – luminescence, BacTiterGlo, counter-screen for streptokinase expression inhibitor project, dose response (AID 1915); assay type: functional, organism-based;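 also: potency for reduction of bacterial viability or growth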
[4] = target: T3, Heat shock factor protein 1 (Mus musculus, UniProt P38532); test: decrease of HSF1-responsive luciferase luminescence – cell-based, NIH3T3, dose retest, confirmation (AID 2382); assay type: functional;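 also: NIH3T3 fibroblasts with HSF1-driven luciferase reporter stressed by proteasome inhibitor MG132; luminescence from HSF1-driven luciferase expression after 8 hours of MG132 stress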
T3 sequence (P38532 whole entry): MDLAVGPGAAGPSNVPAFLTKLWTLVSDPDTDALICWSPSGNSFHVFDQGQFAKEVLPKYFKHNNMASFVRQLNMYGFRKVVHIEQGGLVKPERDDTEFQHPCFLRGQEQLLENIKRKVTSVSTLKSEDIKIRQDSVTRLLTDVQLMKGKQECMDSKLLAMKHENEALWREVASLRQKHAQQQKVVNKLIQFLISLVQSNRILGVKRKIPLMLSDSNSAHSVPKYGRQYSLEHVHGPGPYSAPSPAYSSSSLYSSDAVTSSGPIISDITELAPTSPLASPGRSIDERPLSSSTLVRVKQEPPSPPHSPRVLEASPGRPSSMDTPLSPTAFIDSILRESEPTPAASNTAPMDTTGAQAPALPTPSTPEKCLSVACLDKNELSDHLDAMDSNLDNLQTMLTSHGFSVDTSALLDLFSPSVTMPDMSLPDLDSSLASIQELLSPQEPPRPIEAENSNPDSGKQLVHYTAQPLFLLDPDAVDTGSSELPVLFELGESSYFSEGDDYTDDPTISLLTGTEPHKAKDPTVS

[5] = reduction of Shn3 3'UTR-driven luciferase in osteoblasts – cell-based, Clone20 osteoblasts, firefly luciferase, cherry-picked, dose response (AID 624132); assay type: functional;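 also: firefly luciferase luminescence from reporter carrying the Shn3 3'UTR in osteoblasts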

Chain of Cytochrome P450 3A4 (P08684 whole entry): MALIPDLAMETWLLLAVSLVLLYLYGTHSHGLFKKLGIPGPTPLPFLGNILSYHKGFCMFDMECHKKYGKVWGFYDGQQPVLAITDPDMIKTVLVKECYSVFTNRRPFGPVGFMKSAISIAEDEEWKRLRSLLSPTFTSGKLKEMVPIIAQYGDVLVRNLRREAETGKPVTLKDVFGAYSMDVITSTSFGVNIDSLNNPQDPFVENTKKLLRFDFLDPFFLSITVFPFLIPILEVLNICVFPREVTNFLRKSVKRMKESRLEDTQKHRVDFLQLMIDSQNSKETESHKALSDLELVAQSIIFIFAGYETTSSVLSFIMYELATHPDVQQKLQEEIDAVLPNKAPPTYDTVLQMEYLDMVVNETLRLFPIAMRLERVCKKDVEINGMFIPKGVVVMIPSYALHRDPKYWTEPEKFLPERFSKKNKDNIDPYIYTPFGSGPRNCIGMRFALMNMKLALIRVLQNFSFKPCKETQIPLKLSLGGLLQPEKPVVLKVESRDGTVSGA
Chain of Cytochrome P450 2D6 (P10635 whole entry): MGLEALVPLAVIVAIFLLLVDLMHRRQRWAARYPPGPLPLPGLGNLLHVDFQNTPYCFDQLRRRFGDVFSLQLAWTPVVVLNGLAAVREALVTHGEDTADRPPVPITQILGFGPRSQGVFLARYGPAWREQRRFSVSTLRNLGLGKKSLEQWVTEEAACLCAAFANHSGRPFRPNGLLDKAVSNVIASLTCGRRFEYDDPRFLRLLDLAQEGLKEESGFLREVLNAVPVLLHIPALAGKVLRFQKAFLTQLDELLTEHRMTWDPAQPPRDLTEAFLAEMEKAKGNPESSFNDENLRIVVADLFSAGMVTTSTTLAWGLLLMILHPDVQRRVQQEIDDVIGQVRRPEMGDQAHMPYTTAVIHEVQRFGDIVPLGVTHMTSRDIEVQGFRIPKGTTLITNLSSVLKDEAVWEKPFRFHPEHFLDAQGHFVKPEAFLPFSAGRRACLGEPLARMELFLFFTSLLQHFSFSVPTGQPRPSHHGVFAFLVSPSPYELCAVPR

| SMILES | AC50 (Cytochrome P450 2D6) | IC50 [1] | EC50 [2] | other results |
| --- | --- | --- | --- | --- |
| OCCNc1nc(SCc2ccccc2)nc2sc3c(c12)CCC3 | 25.1 µM (inconclusive) | – | – | – |
| O=C(Oc1ccccc1)N1CCC2(CCCN(Cc3ccccc3)C2)CC1 | 10 µM (inconclusive) | – | – | AC50 (Cytochrome P450 3A4): 12.6 µM (inconclusive) |
| CCCC(c1cc(C(C)(C)C)c(O)cc1C)c1cc(C(C)(C)C)c(O)cc1C | 3.98 µM (inconclusive) | – | – | AC50 (Cytochrome P450 2C19): 6.31 µM (inconclusive); AC50 (Cytochrome P450 2C9): 3.16 µM (inconclusive) |
| CS(=O)(=O)Nc1cccc(-c2ccc3ncnc(Nc4ccc(F)cc4)c3c2)c1 | 39.8 µM (inconclusive) | – | – | – |
| Cc1ccc(C(=O)OCn2nnc3ccccc3c2=O)cc1[N+](=O)[O-] | – | > 47.1 µM (inactive) | > 53 µM (inactive) | – |
| CCOc1cc(N2CCOCC2)c(OCC)cc1NC(=O)C1=NN(c2cccc(C)c2)C(=O)CC1 | – | – | – | EC50 [3]: 13.8 µM (active); EC50 (Streptokinase A): > 150 µM (not active); EC50 (Streptococcus): 123 µM (active) |
| Cc1ccc(N2CC(C(=O)Nc3nc4ccc(S(C)(=O)=O)cc4s3)CC2=O)cc1 (stereo unspecified) | – | – | – | EC50 [4]: > 195 µM (not active) |
| Cc1cccc(C)c1OCC(=O)NCc1ccccc1 | – | – | – | EC50 [4]: > 195 µM (not active) |
| COc1ccc2[nH]cc(CCNc3cc(-c4cccc(C#N)c4)ncn3)c2c1 | 20 µM (inconclusive) | – | – | – |
| CC(C)(C)c1cc(NCc2ccccn2)n2ncc(-c3ccc(Cl)cc3)c2n1 | – | – | – | EC50 [3]: 2.44 µM (active); EC50 (Streptokinase A): > 150 µM (not active); EC50 (Streptococcus): 3.1 µM (active) |
| N#C/C(=C\Nc1ccc2c[nH]nc2c1)c1nc(-c2ccccc2)cs1 | – | – | – | EC50 [4]: > 195 µM (not active) |
| c1ccc2c(NCCN3CCOCC3)nc(-c3ccoc3)nc2c1 | 25.1 µM (inconclusive) | – | – | AC50 (Cytochrome P450 3A4): 15.8 µM (inconclusive) |
| CCC1(C)Cc2c(sc3nc(SC)nc(S)c23)CO1 (stereo unspecified) | – | – | – | EC50 [3]: 1.84 µM (active); EC50 (Streptokinase A): > 150 µM (not active); EC50 (Streptococcus): > 150 µM (not active) |
| CC(=O)Nc1ccc(NC(=O)COc2ccc([N+](=O)[O-])cc2)cc1 | – | > 47.1 µM (inactive) | > 53 µM (inactive) | – |
| CCN(CC)C(=O)C1CCCN(c2ccc([N+](=O)[O-])cc2[N+](=O)[O-])C1 (stereo unspecified) | – | – | – | AC50 [5]: 52.4 µM (active) |
| CC(NC(=O)COC(=O)c1ccc2c(=O)n3c(nc2c1)CCCCC3)c1ccccc1 (stereo unspecified) | – | > 47.1 µM (inactive) | > 53 µM (inactive) | – |
| COC(=O)c1ccc(C(NC(=O)c2ccco2)[C@]2(C)C[C@H]2C2CCCCC2)cc1 (stereo partly specified) | 12.6 µM (inconclusive) | – | – | – |
| COc1ccc(S(=O)(=O)N(C)CC(=O)NC2CCCCC2)cc1OC | – | > 47.1 µM (inactive) | > 53 µM (inactive) | – |
| COc1ccc(CCNC(=O)CN(c2ccc(OC)c(OC)c2)S(C)(=O)=O)cc1OC | – | – | – | EC50 [4]: > 195 µM (not active) |
| CC(C)(C)NC(=O)/C(=C/c1ccccc1F)NC(=O)c1ccc([N+](=O)[O-])cc1 | – | > 47.1 µM (inactive) | > 53 µM (inactive) | – |

| SMILES | AC50 (Cytochrome P450 2D6) | IC50 [1] | EC50 [2] | other results |
| --- | --- | --- | --- | --- |
| CCOc1ccc(C(=O)NC(=S)Nc2ccc(NC(=O)CC)cc2)cc1[N+](=O)[O-] | – | – | – | EC50 [3]: 4.28 µM (active); EC50 (Streptokinase A): > 150 µM (not active); EC50 (Streptococcus): 64.4 µM (active) |
| Cc1ccc2c(Cl)cc(Cl)c(OCC(=O)NC(C)(C)C)c2n1 | – | – | – | EC50 [3]: 12.7 µM (active); EC50 (Streptokinase A): > 150 µM (not active); EC50 (Streptococcus): > 150 µM (not active) |
| COc1cccc(C(C(=O)Nc2ccc(F)cc2)N(C(=O)Cn2nnc3ccccc32)C2CC2)c1 (stereo unspecified) | 25.1 µM (inconclusive) | – | – | – |
| COc1ccccc1-c1nnc(SC2CCc3ccccc3NC2=O)s1 (stereo unspecified) | – | – | – | EC50 [4]: > 195 µM (not active) |
| CCn1c(SCC(=O)NC2CCCCC2)nc2c(c1=O)SC(C)C2 (stereo unspecified) | 1.58 µM (inconclusive) | – | – | – |
| Cc1ccc(C(=O)Nc2nc3ccccc3n3nnnc23)cc1 | 12.6 µM (inconclusive) | – | – | AC50 (Cytochrome P450 2C19): 14.1 µM (inconclusive); AC50 (Cytochrome P450 3A4): 10 µM (inconclusive) |
| CC(Oc1ccc(Cl)cc1Cl)C(=O)NC1=NN(c2ccccc2)C(=O)C1 (stereo unspecified) | – | – | – | EC50 [3]: 3.04 µM (active); EC50 (Streptokinase A): 123 µM (inconclusive); EC50 (Streptococcus): 6.39 µM (active) |
| CCOc1ccccc1N1CCN(C(=O)Cc2ccc(S(=O)(=O)N3CCOCC3)s2)CC1 | – | > 47.1 µM (inactive) | > 53 µM (inactive) | – |
| COc1ccc(S(=O)(=O)N2CCN(C(=O)CCCN3C(=O)NC4(CCCC4)C3=O)CC2)cc1 | – | > 47.1 µM (inactive) | > 53 µM (inactive) | – |
| CC(=O)Nc1ccc(S(=O)(=O)NCc2csc(C)n2)cc1 | – | – | – | EC50 [4]: > 195 µM (not active) |
| COc1ccccc1C(=O)NCCn1cc(SCC(=O)Nc2nnc(C)s2)c2ccccc21 | 28.2 µM (inconclusive) | – | – | – |
| Cc1ccnn2cc3c(=O)n(C)c(=O)n(C)c3c12 | 20 µM (inconclusive) | – | – | AC50 (Cytochrome P450 2C9): 11.2 µM (inconclusive) |
| CCOC(=O)C1CCCN(C(=O)COC(=O)c2cccs2)C1 (stereo unspecified) | – | > 47.1 µM (inactive) | > 53 µM (inactive) | – |
| O=C(NC1(C(F)(F)F)C(=O)Nc2c1c(=O)[nH]c(=O)n2Cc1ccccc1)c1ccc(Cl)cc1 (stereo unspecified) | – | > 47.1 µM (inactive) | > 53 µM (inactive) | – |
| CC1CN(C2CCN(C(=O)c3cccc(Cl)c3)CC2)CC(C)O1 (stereo unspecified) | 0.891 µM (inconclusive) | – | – | AC50 (Cytochrome P450 2C19): 5.62 µM (inconclusive) |
| CC1CN(S(=O)(=O)c2ccc(C(=O)N3CCc4ccccc43)cc2)CC(C)O1 (stereo unspecified) | – | > 47.1 µM (inactive) | > 53 µM (inactive) | – |
| COc1ccc(NC(=O)c2nc3nccc(C)n3n2)cc1S(=O)(=O)N1CCOCC1 | – | > 47.1 µM (inactive) | > 53 µM (inactive) | – |
| COc1ccc(CC(=O)N/N=C(\C)c2ccc(Br)s2)cc1 | – | > 47.1 µM (inactive) | > 53 µM (inactive) | – |
| CN1[C@@H]2CC[C@H]1C[C@@H](OC(=O)c1c[nH]c3ccccc13)C2 [TROPISETRON] | 31.6 µM (inconclusive) | – | – | – |
